Results published in patent US11826402B2, “Combination therapy involving antibodies against claudin 18.2 for treatment of metastatic pancreatic adenocarcinoma” (Astellas Pharma Inc., priority 2013, dated 2023).
“Also recorded” adds a separate entry of the source.

Legend:
[1] = tested on: CLDN18.2 expression in DANG; assay: Effect of chemotherapeutic agents on CLDN18.2 expression (RT-PCR, western blot); assay type: cell-based, human; details: DANG pretreated 2 days, Gem 1 ng/ml or Gem 1 ng/ml+Ox 10 ng/ml, versus untreated
Procedure: FIGS. 30A and 30B show the effect of treatment with chemotherapeutic agents on CLDN18.2 expression (RNA).
Actin was used to show equal loading of proteins.
The area of each bar is divided to indicate the percentage of cells in G0/G1, S and G2 phase.
For RNA isolation from pancreatic cancer cell lines, cells were seeded in 10 cm dishes and grown for 2-3 days until 80% confluent. RNA was isolated according to instructions supplied with the RNeasy® Mini Kit (Qiagen). cDNA preparation was performed following manufacturers instructions provided with the SuperScript® III First Strand kit (Invitrogen). RNA and cDNA samples were stored at −80° C.
Quantitative analysis of CLDN18.2 transcripts was performed by amplifying oligo(dT)-primed cDNAs in a 40 cycle PCR reaction using PCR primers #5054s (5′-[…]-3′) and #5060 as (5′-[…]-3′) differentiating between CLDN18.1 and CLDN18.2 isoforms. The reaction was prepared with SYBR Green (QuantiTect SYBR Green PCR Kit, Qiagen), which intercalates in double stranded DNA. […]
For isolation of proteins of pancreatic cancer cell lines, cells were seeded in 10 cm dishes and grown for 2-3 days until 80% confluent. […] Protein concentration was measured in a spectrophotometer (Absorption at 280 nm) and samples were stored at −80° C. until use. […]

[2] = Phase I clinical study, single intravenous administration; assay type: in vivo, human
From the text: IMAB362 is in early clinical testing. A phase I clinical study has been conducted in human. […] In an ongoing phase IIa clinical study IMAB362 is given repetitively.

Panc02.03 = assay: IMAB362-mediated ADCC assay; assay type: cell-based, human; details: at least 2 donors

## Nc1ccn([C@@H]2O[C@H](CO)[C@@H](O)C2(F)F)c(=O)n1 [gemcitabine, 4-amino-1-(2-deoxy-2,2-difluoro-β-D-erythro-pentofuranosyl)pyrimidin-2(1H)-one]
[1]
  mRNA and protein levels of CLDN18.2: increased; also recorded: upregulation
[1]; listed as Gem
  mRNA and protein levels of CLDN18.2: upregulation

## IMAB362: chimeric IgG1 antibody directed against CLDN18.2, developed by Ganymed Pharmaceuticals AG
[2]; one patient, within 4 weeks after treatment
  measured tumor markers: decreased significantly
[2]; single i.v. administration 33-1000 mg/m^2, observed 28 days
  tolerability in patients: very well tolerated
Panc02.03
  ADCC EC50: n.m.
  ADCC Max. lysis: n.m.
